From patent US20210386069A1 (priority 2018, published 2021)

assay: log P by HPLC on a reversed-phase column (C 18), EEC Directive 79/831 Annex V.A8; format: physicochemical; details: HPLC reversed-phase C 18, 40° C., 0.1% aqueous formic acid and acetonitrile, linear gradient 10% to 95% acetonitrile
Protocol: In table 1, the log P values were determined in accordance with EEC Directive 79/831 Annex V.A8 by HPLC (High Performance Liquid Chromatography) on a reversed-phase column (C 18), using the method described below:
temperature: 40° C.; mobile phases: 0.1% aqueous formic acid and acetonitrile; linear gradient from 10% acetonitrile to 95% acetonitrile;
If more than one Log P value is available within the same method, all the values are given and separated by “;”.
Calibration was carried out using unbranched alkan-2-ones (comprising 3 to 16 carbon atoms) with known log P values (determination of the log P values by the retention times using linear interpolation between two successive alkanones). lambda-max-values were determined using UV-spectra from 200 nm to 400 nm and the peak values of the chromatographic signals.

Row | Structure (SMILES) | logP
1 | Fc1ccc(Nc2cnc3ccccc3c2)c(-c2cccnc2)c1 [I.001] | 1.39
2 | Cc1nc2ccccc2nc1Nc1cccc(F)c1-c1ccncc1F [I.002] | 2.57
3 | Cc1nc2c(F)c(F)ccc2cc1Nc1ccccc1-c1ccnnc1 [I.003] | 2.28
4 | Cc1cncc(-c2ccccc2Nc2cc3ccc(F)c(F)c3nc2C)c1 [I.004] | 1.99
5 | Cc1cc(-c2ccccc2Nc2cc3ccc(F)c(F)c3nc2C)ccn1 [I.005] | 1.75
6 | Cc1ccncc1-c1ccccc1Nc1cc2ccc(F)c(F)c2nc1C [I.006] | 1.86
7 | Cc1nc2c(F)c(F)ccc2cc1Cc1cccc(F)c1-c1ccncc1 [I.007] | 2.00
8 | Cc1nc2c(F)c(F)ccc2cc1Cc1cccc(F)c1-c1cccnc1 [I.008] | 2.64
9 | Cc1nc2c(F)c(F)ccc2cc1Nc1cccc(F)c1-c1cccnc1 [I.009] | 2.28
10 | Cc1nc2c(F)c(F)ccc2cc1Nc1cccc(F)c1-c1ccncc1 [I.010] | 2.01
11 | Cc1nc2c(F)c(F)ccc2cc1Cc1cccc(F)c1-c1cncnc1 [I.011] | 2.76
12 | Cc1nc2c(F)cccc2cc1Nc1cc(F)ccc1-c1ccncc1F [I.012] | 2.95
13 | Cc1nc2c(F)c(F)ccc2cc1Nc1cccc(F)c1-c1cncnc1 [I.013] | 2.61
14 | Cc1nc2c(F)cccc2nc1Nc1cccc(F)c1-c1ccncc1F [I.015] | 2.67
15 | Cc1nc2c(F)c(F)ccc2cc1Nc1cccc(F)c1-c1ccnnc1 [I.016] | 2.44
16 | Cc1nc2c(F)c(F)ccc2cc1Cc1cccc(F)c1C1=CCCCO1 [I.017] | 4.41
17 | Cc1nc2c(F)c(F)ccc2cc1Nc1cccc(F)c1C1=CCCCO1 [I.018] | 4.44
18 | Cc1nc2c(F)c(F)ccc2cc1Nc1ccccc1-c1ccc(C#N)nc1 [I.019] | 3.25
19 | Cc1nc2c(F)c(F)ccc2cc1Nc1ccccc1-c1cncc(C#N)c1 [I.020] | 3.04
20 | Cc1nc2c(F)c(F)ccc2cc1Nc1ccccc1-c1ccncc1C#N [I.021] | 1.41
21 | CCc1cnccc1-c1ccccc1Nc1cc2ccc(F)c(F)c2nc1C [I.022] | 2.08
22 | CCc1ccncc1-c1ccccc1Nc1cc2ccc(F)c(F)c2nc1C [I.023] | 2.08

Row | Structure (SMILES) | logP
23 | CCc1ncccc1-c1ccccc1Nc1cc2ccc(F)c(F)c2nc1C [I.024] | 2.03
24 | Cc1cncc(C)c1-c1ccccc1Nc1cc2ccc(F)c(F)c2nc1C [I.025] | 2.05
25 | Cc1nc2c(F)c(F)ccc2cc1Nc1ccccc1-c1cccc(=O)n1C [I.026] | 2.52
26 | COc1cnccc1-c1ccccc1Nc1cc2ccc(F)c(F)c2nc1C [I.027] | 2.14
27 | COc1cc(-c2ccccc2Nc2cc3ccc(F)c(F)c3nc2C)ccn1 [I.028] | 3.56
28 | COc1cccc(-c2ccccc2Nc2cc3ccc(F)c(F)c3nc2C)n1 [I.029] | 4.66
29 | COc1ccncc1-c1ccccc1Nc1cc2ccc(F)c(F)c2nc1C [I.030] | 1.77
30 | Cc1cc(-c2ccccc2Nc2cc3ccc(F)c(F)c3nc2C)cnc1F [I.031] | 3.69
31 | Cc1cncc(-c2c(F)cccc2Nc2cc3ccc(F)c(F)c3nc2C)c1 [I.032] | 2.26
32 | Cc1cc(-c2c(F)cccc2Nc2cc3ccc(F)c(F)c3nc2C)ccn1 [I.033] | 1.88
33 | Cc1nc2c(F)c(F)ccc2cc1Nc1ccccc1-c1ccncc1Cl [I.034] | 3.37
34 | Cc1nc2c(F)c(F)ccc2cc1Nc1ccccc1-c1cccc(Cl)n1 [I.035] | 4.97
35 | Cc1nc2c(F)c(F)ccc2cc1Nc1ccccc1-c1ccnc(Cl)c1 [I.036] | 3.56
36 | Cc1nc2c(F)c(F)ccc2cc1Nc1ccccc1-c1ccc(Cl)nc1 [I.037] | 3.62
37 | Cc1nc2c(F)c(F)ccc2cc1Nc1ccccc1-c1cccnc1Cl [I.038] | 3.43
38 | Cc1nc2c(F)c(F)ccc2cc1Nc1ccccc1-c1cnccc1Cl [I.039] | 3.22
39 | Cc1nc2c(F)c(F)ccc2cc1Nc1ccccc1-c1cncc(Cl)c1 [I.040] | 3.54
40 | Cc1nc2c(F)c(F)ccc2cc1Cc1cccc(F)c1-c1ccncc1F [I.041] | 3.40
41 | Cc1nc2c(F)c(F)ccc2cc1Cc1cccc(F)c1-c1cccnc1F [I.043] | 3.55
42 | Cc1nc2c(F)c(F)ccc2cc1Cc1cccc(F)c1-c1ccnc(F)c1 [I.044] | 3.65
43 | Cc1nc2c(F)c(F)ccc2cc1Nc1cccc(F)c1-c1ccc(F)nc1 [I.045] | 3.46
44 | Cc1nc2c(F)c(F)ccc2cc1Nc1cccc(F)c1-c1ccnc(F)c1 [I.046] | 3.46

Row | Structure (SMILES) | logP
45 | Cc1nc2c(F)c(F)ccc2cc1Nc1cccc(F)c1-c1cccnc1F [I.047] | 3.35
46 | Cc1nc2c(F)c(F)ccc2cc1Nc1c(F)cccc1-c1ccncc1F [I.048] | 3.04
47 | Cc1nc2c(F)c(F)ccc2cc1Nc1ccc(F)cc1-c1ccncc1F [I.049] | 3.24
48 | Cc1nc2c(F)c(F)ccc2nc1Cc1cccc(F)c1-c1ccncc1F [I.050] | 3.31
49 | Cc1nc2c(F)c(F)ccc2cc1Nc1cccc(F)c1-c1ccncc1F [I.051] | 3.29
50 | Cc1nc2c(F)c(F)ccc2cc1Nc1ccccc1-c1ccnc(F)c1F [I.053] | 3.69
51 | Cc1nc2c(F)c(F)ccc2cc1Nc1ccccc1-c1cc(F)nc(F)c1 [I.054] | 3.91
52 | Cc1nc2c(F)c(F)ccc2cc1Nc1ccccc1-c1ccc(F)nc1F [I.055] | 3.81
53 | Cc1nc2c(F)c(F)ccc2nc1Nc1cccc(F)c1-c1ccncc1F [I.056] | 2.98
54 | Cc1nc2c(F)c(F)ccc2cc1Nc1ccccc1-c1cnccc1C1CC1 [I.057] | 2.05
55 | Cc1nc2c(F)c(F)ccc2cc1Nc1ccccc1-c1ccncc1C1CC1 [I.058] | 2.12
56 | Cc1nc2c(F)c(F)ccc2cc1Nc1ccccc1-c1cccnc1C1CC1 [I.059] | 2.80
57 | CCCc1ncccc1-c1ccccc1Nc1cc2ccc(F)c(F)c2nc1C [I.060] | 2.21
58 | CCCc1cnccc1-c1ccccc1Nc1cc2ccc(F)c(F)c2nc1C [I.061] | 2.31
59 | CCCc1ccncc1-c1ccccc1Nc1cc2ccc(F)c(F)c2nc1C [I.062] | 2.41
60 | Cc1nc2c(F)c(F)ccc2cc1Nc1cccc(F)c1-c1ccncc1C#N [I.063] | 1.46
61 | Cc1nc2c(F)c(F)ccc2cc1Nc1cccc(F)c1-c1cncc(C#N)c1 [I.064] | 3.16
62 | CCOc1ccc(-c2ccccc2Nc2cc3ccc(F)c(F)c3nc2C)cn1 [I.065] | 4.02
63 | CCOc1ncccc1-c1ccccc1Nc1cc2ccc(F)c(F)c2nc1C [I.066] | 4.24
64 | CCc1cnccc1-c1c(F)cccc1Nc1cc2ccc(F)c(F)c2nc1C [I.067] | 2.41
65 | CCc1ccncc1-c1c(F)cccc1Nc1cc2ccc(F)c(F)c2nc1C [I.068] | 2.41
66 | CCc1ncccc1-c1c(F)cccc1Nc1cc2ccc(F)c(F)c2nc1C [I.069] | 2.41

Row | Structure (SMILES) | logP
67 | Cc1cncc(C)c1-c1c(F)cccc1Nc1cc2ccc(F)c(F)c2nc1C [I.070] | 2.28
68 | CSc1ccc(-c2ccccc2Nc2cc3ccc(F)c(F)c3nc2C)cn1 [I.071] | 3.81
69 | CSc1ncccc1-c1ccccc1Nc1cc2ccc(F)c(F)c2nc1C [I.072] | 4.08
70 | COc1ccc(-c2c(F)cccc2Cc2cc3ccc(F)c(F)c3nc2C)cn1 [I.073] | 3.99
71 | COc1cccc(-c2c(F)cccc2Cc2cc3ccc(F)c(F)c3nc2C)n1 [I.074] | 3.79
72 | COc1ncccc1-c1c(F)cccc1Cc1cc2ccc(F)c(F)c2nc1C [I.075] | 3.79
73 | COc1ncccc1-c1c(F)cccc1Nc1cc2ccc(F)c(F)c2nc1C [I.076] | 3.70
74 | COc1ccc(-c2c(F)cccc2Nc2cc3ccc(F)c(F)c3nc2C)cn1 [I.077] | 3.71
75 | COc1ncc(-c2c(F)cccc2Cc2cc3ccc(F)c(F)c3nc2C)cn1 [I.078] | 3.25
76 | COc1c(-c2ccccc2Nc2cc3ccc(F)c(F)c3nc2C)ccnc1F [I.079] | 3.72
77 | COc1cccc(-c2c(F)cccc2Nc2cc3ccc(F)c(F)c3nc2C)n1 [I.080] | 4.55
78 | COc1cnccc1-c1c(F)cccc1Nc1cc2ccc(F)c(F)c2nc1C [I.081] | 2.44
79 | COc1ccncc1-c1c(F)cccc1Nc1cc2ccc(F)c(F)c2nc1C [I.082] | 1.84
80 | COc1cc(-c2c(F)cccc2Nc2cc3ccc(F)c(F)c3nc2C)ccn1 [I.083] | 3.71
81 | Cc1cnc(Cl)c(-c2ccccc2Nc2cc3ccc(F)c(F)c3nc2C)c1 [I.084] | 3.69
82 | Cc1nc2c(F)c(F)ccc2cc1Nc1ccccc1-c1ccc(Cl)nc1C [I.085] | 3.94
83 | Cc1cc(Cl)ncc1-c1ccccc1Nc1cc2ccc(F)c(F)c2nc1C [I.086] | 3.98
84 | Cc1cc(-c2ccccc2Nc2cc3ccc(F)c(F)c3nc2C)cnc1Cl [I.087] | 3.91
85 | COc1ncc(-c2c(F)cccc2Nc2cc3ccc(F)c(F)c3nc2C)cn1 [I.088] | 3.08
86 | Cc1cc(-c2c(F)cccc2Nc2cc3ccc(F)c(F)c3nc2C)cnc1F [I.089] | 3.75
87 | Cc1nc2c(F)c(F)ccc2cc1Nc1ccccc1-c1cncc(F)c1Cl [I.090] | 3.62

same assay, conditions: reversed-phase HPLC column (C 18); preparation examples; log P as defined in table 1 (HPLC, 0.1% aqueous formic acid/acetonitrile)

Row | Structure (SMILES) | chromatographic logP
88 | Nc1cccc(F)c1-c1ccncc1F | 2.38
89 | Cc1nc2c(F)c(F)ccc2cc1Cc1cscc1Br [3-[(4-bromo-3-thienyl)methyl]-7,8-difluoro-2-methylquinoline] | 4.01
90 | ClCc1cscc1Br [3-bromo-4-(chloromethyl)thiophene] | 2.99
91 | Cc1nc2c(F)c(F)ccc2cc1Cc1cccc(F)c1-c1ccc(F)nc1 [I.042, 7,8-difluoro-3-[3-fluoro-2-(6-fluoropyridin-3-yl)benzyl]-2-methylquinoline] | 3.7
